In patent publication US20130131075A1, “NEW COMPOUNDS” (Boehringer Ingelheim International GmbH, priority 2009, published 2013):

Target: T1, cynomolgus BK1-receptor (Macaca fascicularis, UniProt Q3BCU0)
T1 construct: expressed in transfected cells; host or cells: CHO cells (homogenate)
T1 sequence (Q3BCU0 1-352): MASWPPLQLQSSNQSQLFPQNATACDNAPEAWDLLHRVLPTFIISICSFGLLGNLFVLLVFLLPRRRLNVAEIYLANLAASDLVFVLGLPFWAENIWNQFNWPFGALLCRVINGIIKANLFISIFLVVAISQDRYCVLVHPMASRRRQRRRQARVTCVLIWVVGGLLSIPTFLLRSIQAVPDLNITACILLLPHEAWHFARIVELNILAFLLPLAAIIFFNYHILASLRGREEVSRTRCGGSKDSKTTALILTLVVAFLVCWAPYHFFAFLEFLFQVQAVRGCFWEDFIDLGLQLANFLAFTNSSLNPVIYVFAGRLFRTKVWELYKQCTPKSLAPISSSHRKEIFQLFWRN
Test: cynoBK1-receptor binding assay
Settings: CHO cells expressing cynomolgus BK1-receptor, radioligand kallidine (DesArg10,Leu9); for inhibition at 10 µM: at 10 μgmol/L
In short: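 Radioligand competition on homogenates of CHO cells expressing cynomolgus BK1 receptor (50 to 250 μg protein/assay), incubated 60-180 minutes at ambient temperature with 0.5 to 5.0 nM [3H]kallidine (DesArg10,Leu9) plus increasing test compound. Filtration binding; non-specific defined with 1.0 μM kallidine (DesArg10); Ki from non-linear curve fitting.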

Ki	inhibition at 10 µM	SMILES
> 500 nM	81%	N#Cc1ccc(Nc2ccc(CNC(=O)C3(NC(=O)c4cncnc4)CC3)nc2)c(C(F)(F)F)c1 [(197)]
365 nM	103%	Cc1cccc(C(F)(F)F)c1Nc1ccc(CNC(=O)C2(NC(=O)c3cncnc3)CC2)nc1 [(49)]
1.9 nM	–	CC(NC(=O)C1(NC(=O)c2cncnc2)CC1)c1ncc(Nc2ccc(Cl)cc2C(F)(F)F)cc1F (stereo not drawn) [(203)]
–	107%	O=C(NC1(C(=O)NCc2ccc(Nc3ccccc3C(F)(F)F)cc2)CC1)c1ccno1 [(24)]
2.4 nM	113%	O=C(NC1(C(=O)NCc2ncc(Nc3c(F)cccc3C(F)(F)F)cc2F)CC1)c1cncnc1 [(120)]
11 nM	107%	Nc1cncc(C(=O)NC2(C(=O)NCc3ccc(Nc4ccc(Br)cc4C(F)(F)F)cn3)CC2)c1 [(178)]
–	42%	O=C1CCCC(C(=O)N[C@@]2(C(=O)NCc3ccc(Nc4ccccc4C(F)(F)F)cc3)CCOC2)C1 (stereo partly drawn) [(69)]
69 nM	–	Cc1ccc(C(=O)NC2(C(=O)NCc3ccc(Nc4ccc(F)cc4C(F)(F)F)cn3)CC2)cn1 [(341)]
5.1 nM	–	Nc1ccc(C(=O)NC2(C(=O)NCc3ccc(Nc4ccc(Cl)cc4C(F)(F)F)cn3)CC2)cn1 [(206)]
52 nM	–	Cc1cncc(C(=O)NC2(C(=O)NCc3ccc(Nc4ccc(Cl)cc4C(F)(F)F)cn3)CC2)c1 [(353)]
95 nM	–	COc1cncc(C(=O)NC2(C(=O)NCc3ccc(Nc4ccc(Cl)cc4C(F)(F)F)cn3)CC2)c1 [(313)]
59 nM	–	Nc1ccc(C(=O)N[C@@]2(C(=O)NCc3ncc(Nc4ccc(Cl)cc4C(F)(F)F)cc3Cl)CCOC2)cn1 [(297)]
–	97%	O=C(NC1(C(=O)NCc2ccc(Nc3ccc(Br)cc3C(F)(F)F)cn2)CC1)c1ccnc(O)c1 [(171)]
21 nM	100%	CNc1ncc(C(=O)NC2(C(=O)NCc3ccc(Nc4ccc(F)cc4C#N)cc3)CC2)cn1 [(183)]
2 nM	113%	CC(NC(=O)C1(NC(=O)c2cncnc2)CC1)c1ncc(Nc2c(F)cccc2C(F)(F)F)cc1F (stereo not drawn) [(121)]
33 nM	112%	CC(NC(=O)C1(NC(=O)c2cncc(N)c2)CC1)c1ccc(Nc2c(F)cccc2C(F)(F)F)cn1 (stereo not drawn) [(124)]
386 nM	–	O=C(N[C@@]1(C(=O)NCc2ccc(Nc3ccc(Cl)cc3C(F)(F)F)cc2)CCOC1)c1cnc2[nH]ccc2c1 [(388)]
7.2 nM	–	Cc1ncc(C(=O)N[C@@]2(C(=O)NCc3ncc(Nc4ccccc4C(F)(F)F)cc3Cl)CCOC2)cn1 [(292)]
485 nM	–	CN(C)c1ccc(C(=O)NC2(C(=O)NCc3ccc(Nc4ccc(Cl)cc4C(F)(F)F)cn3)CC2)cn1 [(263)]
–	54%	O=C(Cc1cccnc1)N[C@@]1(C(=O)NCc2ccc(Nc3ccccc3C(F)(F)F)cc2)CCOC1 [(104)]
> 500 nM	83%	N#Cc1cccc(F)c1Nc1ccc(CNC(=O)C2(NC(=O)c3cncnc3)CC2)cc1 [(116)]
89 nM	–	COc1ncc(C(=O)N[C@@]2(C(=O)NCc3ccc(Nc4ccc(F)cc4C(F)(F)F)cn3)CCOC2)cn1 [(327)]

Ki	inhibition at 10 µM	SMILES
> 500 nM	64%	NC(=O)c1ccc(Nc2ccc(CNC(=O)C3(NC(=O)c4cncnc4)CC3)nc2)c(C(F)(F)F)c1 [(198)]
–	96%	COc1ccc(C(=O)N[C@@]2(C(=O)NCc3ccc(Nc4ccccc4C(F)(F)F)cc3)CCOC2)cc1 [(99)]
78 nM	–	O=C(N[C@@]1(C(=O)NCc2ccc(Nc3ccc(Cl)cc3C(F)(F)F)cn2)CCOC1)c1cncnc1 [(228)]
–	82%	Cc1nc(N)sc1C(=O)NC1(C(=O)NCc2ccc(Nc3ccc(F)cc3C(F)(F)F)cn2)CC1 [(186)]
506 nM	–	COc1ccc(C(=O)NC2(C(=O)NCc3ccc(Nc4ccc(Cl)cc4C(F)(F)F)cn3)CC2)cn1 [(240)]
225 nM	–	O=C(N[C@@]1(C(=O)NCc2ccc(Nc3ccc(F)cc3C(F)(F)F)cc2)CCOC1)c1cnc2[nH]ccc2c1 [(383)]
95 nM	–	Cn1cc(C(=O)NC2(C(=O)NCc3ccc(Nc4ccc(Cl)cc4C(F)(F)F)cn3)CC2)cn1 [(373)]
–	100%	O=C(NC1(C(=O)NCc2ccc(Nc3ccc(Cl)cc3C(F)(F)F)cn2)CC1)c1cncs1 [(149)]
68 nM	–	Nc1cncc(C(=O)N[C@@]2(C(=O)NCc3ccc(Nc4ccc(Br)cc4C(F)(F)F)cn3)CCOC2)c1 [(222)]
8 nM	–	CC(NC(=O)C1(NC(=O)c2cncnc2)CC1)c1ncc(Nc2ccc(F)cc2C#N)cc1F (stereo not drawn) [(212)]
–	86%	O=C(N[C@@]1(C(=O)NCc2ccc(Nc3ccccc3C(F)(F)F)cc2)CCOC1)c1ccncc1 [(95)]
51 nM	–	CNc1cncc(C(=O)NC2(C(=O)NCc3ccc(Nc4ccc(F)cc4C(F)(F)F)cn3)CC2)c1 [(270)]
–	7%	Cc1ccccc1N(C)c1ccc(CNC(=O)C2(NC(=O)c3cncnc3)CC2)cc1 [(113)]
–	107%	CNc1ncc(C(=O)N[C@@]2(C(=O)NCc3ccc(Nc4ccccc4C(F)(F)F)cc3)CCOC2)cn1 [(82)]
31 nM	–	Nc1ccc(C(=O)N[C@@]2(C(=O)NCc3ncc(Nc4ccc(F)cc4C(F)(F)F)cc3F)CCOC2)cn1 [(348)]
21 nM	113%	N#Cc1cc(F)ccc1Nc1ccc(CNC(=O)C2(NC(=O)c3cncnc3)CC2)cc1 [(36)]
50 nM	–	Cc1cc(Nc2ccc(F)cc2C(F)(F)F)cnc1CNC(=O)[C@]1(NC(=O)c2cncc(N)c2)CCOC1 [(342)]
31 nM	–	N#Cc1ccccc1Nc1cnc(CNC(=O)C2(NC(=O)c3cncnc3)CC2)c(F)c1 [(295)]
6.8 nM	–	CC(C)Nc1ncc(C(=O)NC2(C(=O)NCc3ccc(Nc4ccc(Cl)cc4C(F)(F)F)cn3)CC2)cn1 [(382)]
2.8 nM	99%	CNc1ncc(C(=O)NC2(C(=O)NCc3ccc(Nc4ccc(Cl)cc4C(F)(F)F)cn3)CC2)cn1 [(145)]
120 nM	–	CN(C)c1cc(C(=O)NC2(C(=O)NCc3ccc(Nc4ccc(F)cc4C(F)(F)F)cn3)CC2)cnn1 [(252)]
405 nM	–	CC(=O)Nc1cncc(C(=O)NC2(C(=O)NCc3ccc(Nc4ccc(Cl)cc4C(F)(F)F)cn3)CC2)c1 [(275)]

Ki	inhibition at 10 µM	SMILES
–	87%	COc1cc(OC)cc(C(=O)N[C@@]2(C(=O)NCc3ccc(Nc4ccccc4C(F)(F)F)cc3)CCOC2)c1 [(103)]
63 nM	96%	CN(C)c1ncc(C(=O)NC2(C(=O)NCc3ccc(Nc4ccc(Br)cc4C(F)(F)F)cn3)CC2)cn1 [(175)]
38 nM	112%	Cc1ccc(Nc2ccc(CNC(=O)C3(NC(=O)c4cncnc4)CC3)nc2)c(C(F)(F)F)c1 [(51)]
21 nM	–	O=C(NC1(C(=O)NCc2ccc(Nc3ccc(F)cc3C(F)(F)F)cn2)CC1)c1cnc2[nH]ccc2c1 [(384)]
37 nM	–	Nc1cc(C(=O)NC2(C(=O)NCc3ccc(Nc4ccc(F)cc4C(F)(F)F)cn3)CC2)cnn1 [(262)]
–	78%	CN(C)CC(=O)NC1(C(=O)NCc2ccc(Nc3ccccc3C(F)(F)F)cc2)CC1 [(12)]
> 500 nM	77%	N#Cc1ccc(F)cc1Nc1ccc(CNC(=O)C2(NC(=O)c3cncnc3)CC2)cc1 [(114)]
> 500 nM	77%	O=C(NC1(C(=O)NCc2ccc(Nc3ccc(F)cc3)cc2)CC1)c1cncnc1 [(37)]
35 nM	–	CCCNc1ccc(C(=O)NC2(C(=O)NCc3ccc(Nc4ccc(Cl)cc4C(F)(F)F)cn3)CC2)cn1 [(330)]
–	84%	O=C(N[C@@]1(C(=O)NCc2ccc(Nc3ccccc3C(F)(F)F)cc2)CCOC1)C1CCOC1 (stereo partly drawn) [(60)]
9.1 nM	–	Cc1ncc(C(=O)N[C@@]2(C(=O)NCc3ccc(Nc4ccc(F)cc4C(F)(F)F)cc3)CCOC2)cn1 [(288)]
349 nM	–	CNc1cncc(C(=O)N[C@@]2(C(=O)NCc3ccc(Nc4ccc(F)cc4C(F)(F)F)cn3)CCOC2)c1 [(311)]
36 nM	94%	O=C(N[C@@]1(C(=O)NCc2ccc(Nc3ccc(F)cc3C(F)(F)F)cn2)CCOC1)c1cncnc1 [(43)]
15 nM	106%	O=C(NC1(C(=O)NCc2ncc(Nc3c(F)cccc3C(F)(F)F)cc2F)CC1)c1cncs1 [(135)]
33 nM	105%	Cc1cncc(C(=O)NC2(C(=O)NCc3ncc(Nc4c(F)cccc4C(F)(F)F)cc3F)CC2)c1 [(131)]
24 nM	–	O=C(NC1(C(=O)NCc2ccc(Nc3ccc(Cl)cc3C(F)(F)F)cn2)CC1)c1cncc(F)c1 [(351)]
–	73%	O=C1CCC(C(=O)N[C@@]2(C(=O)NCc3ccc(Nc4ccccc4C(F)(F)F)cc3)CCOC2)C1 (stereo partly drawn) [(78)]
35 nM	104%	CC(C#N)C(=O)NC1(C(=O)NCc2ccc(Nc3ccc(F)cc3C(F)(F)F)cn2)CC1 (stereo not drawn) [(170)]
126 nM	97%	Nc1cncc(C(=O)NC2(C(=O)NCc3ccc(Nc4ccc(F)cc4C(F)(F)F)cn3)CC2)n1 [(144)]
46 nM	–	Nc1cncc(C(=O)N[C@@]2(C(=O)NCc3ccc(Nc4c(F)cccc4C(F)(F)F)cc3F)CCOC2)c1 [(290)]
87 nM	105%	O=C(N[C@@]1(C(=O)NCc2ccc(Nc3ccccc3C(F)(F)F)cc2)CCOC1)c1cc(O)cc(O)c1 [(102)]
–	86%	CC(NC(=O)C1(NC(=O)c2cncnc2)CC1)c1ccc(Nc2ccc(OC(F)F)cc2)cc1 (stereo not drawn) [(25)]
